This passage reports MIC results from ChEMBL document CHEMBL1687763 (2010).

Molecules are shown by their SMILES. Values after ≈ are worked out from the molar mass of the structure shown.

Assay [1] deals with Staphylococcus aureus. Briefly: Antimicrobial activity against methicillin-resistant Staphylococcus aureus isolate 55 after 24 hrs by agar dilution method. As to conditions: isolate 55, 24 h. For orientation: Agar dilution tests growth on a series of plates holding different concentrations.
In assay [2] the test system is Staphylococcus aureus. Briefly: Antimicrobial activity against methicillin-resistant Staphylococcus aureus isolate 56 after 24 hrs by agar dilution method. Particulars: isolate 56, 24 h.
Assay [3] has as its system Staphylococcus aureus. Description: Antimicrobial activity against glycopeptide-susceptible Staphylococcus aureus NRS3 by tube macrodilution method.
Assay [4] has as its system Staphylococcus aureus. Briefly: Antimicrobial activity against methicillin-resistant Staphylococcus aureus isolate 55 after 24 hrs by macrodilution method. Particulars: isolate 55, 24 h.
The subject of assay [5] is Staphylococcus aureus. Briefly: Antimicrobial activity against methicillin-resistant Staphylococcus aureus isolate 56 after 24 hrs by macrodilution method. Particulars: isolate 56, 24 h.
Assay [6] has as its system Staphylococcus aureus. Description: Antimicrobial activity against methicillin-resistant Staphylococcus aureus isolate 55 after 48 hrs by agar dilution method. Particulars: isolate 55, 48 h.
Assay [7] relates to Staphylococcus aureus. Briefly: Antimicrobial activity against methicillin-resistant Staphylococcus aureus isolate 56 after 48 hrs by agar dilution method. As to conditions: isolate 56, 48 h.
Assay [8] deals with Staphylococcus aureus. Description: Antimicrobial activity against methicillin-resistant Staphylococcus aureus isolate 55 after 48 hrs by macrodilution method. Particulars: isolate 55, 48 h.
For assay [9], the system named is Staphylococcus aureus. Description: Antimicrobial activity against methicillin-resistant Staphylococcus aureus isolate 56 after 48 hrs by macrodilution method. As to conditions: isolate 56, 48 h.
In assay [10] the test system is Staphylococcus aureus. Description: Antimicrobial activity against methicillin-resistant Staphylococcus aureus isolate 55 grown on brain heart infusion media after 48 hrs by macrodilution method. As to conditions: isolate 55, 48 h.
Assay [11] concerns Staphylococcus aureus. Briefly: Antimicrobial activity against methicillin-resistant Staphylococcus aureus isolate 56 grown on brain heart infusion media after 48 hrs by macrodilution method. Particulars: isolate 56, 48 h.
Assay [12] concerns Staphylococcus aureus. Briefly: Antimicrobial activity against methicillin-resistant Staphylococcus aureus isolate 55 grown on CAMHB media after 48 hrs by tube macrodilution method. As to conditions: isolate 55, 48 h.
The subject of assay [13] is Staphylococcus aureus. Briefly: Antimicrobial activity against methicillin-resistant Staphylococcus aureus isolate 56 grown on CAMHB media after 48 hrs by tube macrodilution method. Particulars: isolate 56, 48 h.
In assay [14] the test system is Staphylococcus aureus. Description: Antimicrobial activity against heterogenous glycopeptide-intermediate resistant Staphylococcus aureus Mu3-D grown on brain heart infusion media after 48 hrs by tube macrodilution method.
For assay [15], the system named is Staphylococcus aureus. Briefly: Antimicrobial activity against methicillin-resistant Staphylococcus aureus isolate 1 by broth microdilution method. (In general: In broth dilution the organism is exposed to a series of concentrations in liquid medium.)
Assay [16] has as its system Staphylococcus aureus. Briefly: Antimicrobial activity against methicillin-resistant Staphylococcus aureus isolate 6 by broth microdilution method.
The subject of assay [17] is Staphylococcus aureus. Briefly: Antimicrobial activity against methicillin-resistant Staphylococcus aureus isolate 8 by broth microdilution method.
In assay [18] the test system is Staphylococcus aureus. Description: Antimicrobial activity against methicillin-resistant Staphylococcus aureus isolate 12 by broth microdilution method.

As to `CN[C@H](CC(C)C)C(=O)N[C@H]1C(=O)N[C@@H](CC(N)=O)C(=O)N[C@H]2C(=O)N[C@H]3C(=O)N[C@H](C(=O)N[C@H](C(=O)O)c4cc(O)cc(O)c4-c4cc3ccc4O)[C@H](O)c3ccc(c(Cl)c3)Oc3cc2cc(c3O[C@@H]2O[C@H](CO)[C@@H](O)[C@H](O)[C@H]2O[C@H]2C[C@](C)(N)[C@H](O)[C@H](C)O2)Oc2ccc(cc2Cl)[C@H]1O` [VANCOMYCIN], the MIC (in general, the smallest concentration in the dilution series that meets the test's criterion for growth inhibition) is 8 µg/mL (≈ 5.52 µM) against Staphylococcus aureus [1]; 8 µg/mL (≈ 5.52 µM) against Staphylococcus aureus [2]; at least 8 µg/mL against Staphylococcus aureus [3]; 8 µg/mL (≈ 5.52 µM) with Staphylococcus aureus [4]; 8 µg/mL (≈ 5.52 µM) against Staphylococcus aureus [5]; 8 µg/mL (≈ 5.52 µM) against Staphylococcus aureus [6]. Also, the MIC with Staphylococcus aureus [7], against Staphylococcus aureus [8], against Staphylococcus aureus [9], with Staphylococcus aureus [10], against Staphylococcus aureus [11] and in the assay on Staphylococcus aureus [12] was 8 µg/mL (≈ 5.52 µM) in each case. Also, the MIC was 8 µg/mL (≈ 5.52 µM) in the assay with Staphylococcus aureus [13]; 4 µg/mL (≈ 2.76 µM) in the assay on Staphylococcus aureus [14]; 0.25 µg/mL (≈ 0.173 µM) in the assay on Staphylococcus aureus [15]; 0.25 µg/mL (≈ 0.173 µM) in the assay on Staphylococcus aureus [16]; 0.25 µg/mL (≈ 0.173 µM) against Staphylococcus aureus [17]; 0.25 µg/mL (≈ 0.173 µM) against Staphylococcus aureus [18].
